Measurements taken from ChEMBL document CHEMBL1275354, “Anticonvulsant activity of 2,4(1H)-diarylimidazoles in mice and rats acute seizure models” (Bioorg Med Chem, 2010).
Active and inactive are the calls of the source. The rule behind the calls is not given here.

Legend:
Rattus norvegicus [1] = assay: Neurotoxicity in albino Sprague-Dawley rat assessed as minimal motor impairment at 30 mg/kg, po by rotarod test; type: toxicity, organism-based; design: dose 30 mg/kg, route oral; settings: in vivo
Rattus norvegicus [2] = assay: Anticonvulsant activity in albino Sprague-Dawley rat assessed as protection against maximal electroshock-induced seizures at 30 mg/kg, po after 2 hrs; type: functional, organism-based; design: dose 30 mg/kg
Mus musculus [3] = assay: Anticonvulsant activity in albino CF1 mouse assessed as protection against maximal electroshock-induced seizures at 30 mg/kg, ip after 4 hrs; type: functional, organism-based; design: dose 30 mg/kg
Mus musculus [4] = assay: Anticonvulsant activity in albino CF1 mouse assessed as protection against subcutaneous metrazole-induced seizures at 30 mg/kg, ip after 0.5 hrs; type: functional, organism-based; design: dose 30 mg/kg
Mus musculus [5] = assay: Anticonvulsant activity in albino CF1 mouse assessed as protection against maximal electroshock-induced seizures at 30 mg/kg, ip after 0.5 hrs; type: functional, organism-based; design: dose 30 mg/kg
Mus musculus [6] = assay: Anticonvulsant activity against subcutaneous metrazole-induced seizures in ip dosed albino CF1 mouse assessed as minimum effective dose after 4 hrs; type: functional; settings: albino CF1, 4 h, read-out: MED
Mus musculus [7] = assay: Anticonvulsant activity in albino CF1 mouse assessed as protection against subcutaneous metrazole-induced seizures at 300 mg/kg, ip after 0.5 hrs; type: functional, organism-based; design: dose 300 mg/kg
Mus musculus [8] = assay: Neurotoxicity in ip dosed albino CF1 mouse assessed as minimal motor impairment after 0.25 hrs by rotarod test; type: toxicity, organism-based; settings: in vivo
Mus musculus [9] = assay: Neurotoxicity in albino CF1 mouse assessed as minimal motor impairment at 80 mg/kg, ip after 0.25 hrs by rotarod test; type: toxicity, organism-based; design: dose 80 mg/kg, route intraperitoneal; settings: in vivo
Mus musculus [10] = assay: Anticonvulsant activity in albino CF1 mouse assessed as protection against subcutaneous metrazole-induced seizures at 30 mg/kg, ip after 4 hrs; type: functional, organism-based; design: dose 30 mg/kg
Mus musculus [11] = assay: Neurotoxicity in albino CF1 mouse assessed as minimal motor impairment at 200 mg/kg, ip after 0.25 hrs by rotarod test; type: toxicity, organism-based; design: dose 200 mg/kg, route intraperitoneal; settings: in vivo
Mus musculus [12] = assay: Neurotoxicity in albino CF1 mouse assessed as minimal motor impairment at 30 mg/kg, ip after 4 hrs by rotarod test; type: toxicity, organism-based; design: dose 30 mg/kg, route intraperitoneal; settings: in vivo
Mus musculus [13] = assay: Anticonvulsant activity against maximal electroshock-induced seizures in ip dosed albino CF1 mouse assessed as minimum effective dose after 4 hrs; type: functional; settings: read-out: MED
Mus musculus [14] = assay: Anticonvulsant activity in albino CF1 mouse assessed as protection against subcutaneous metrazole-induced seizures at 100 mg/kg, ip after 0.5 hrs; type: functional, organism-based; design: dose 100 mg/kg
Rattus norvegicus [15] = assay: Anticonvulsant activity in albino Sprague-Dawley rat assessed as protection against maximal electroshock-induced seizures at 30 mg/kg, po after 1 hr; type: functional, organism-based; design: dose 30 mg/kg
Mus musculus [16] = assay: Anticonvulsant activity against maximal electroshock-induced seizures in ip dosed albino CF1 mouse assessed as minimum effective dose after 0.5 hrs; type: functional; settings: read-out: MED
Mus musculus [17] = assay: Anticonvulsant activity in albino CF1 mouse assessed as protection against maximal electroshock-induced seizures at 100 mg/kg, ip after 0.5 hrs; type: functional, organism-based; design: dose 100 mg/kg
Mus musculus [18] = assay: Neurotoxicity in albino CF1 mouse assessed as minimal motor impairment at 30 to 300 mg/kg, ip after 0.5 hrs by rotarod test; settings: in vivo
Mus musculus [19] = assay: Anticonvulsant activity in albino CF1 mouse assessed as protection against maximal electroshock-induced seizures at 300 mg/kg, ip after 4 hrs; type: functional, organism-based; design: dose 300 mg/kg
Mus musculus [20] = assay: Neurotoxicity in albino CF1 mouse assessed as minimal motor impairment at 300 mg/kg, ip after 0.5 hrs by rotarod test; type: toxicity, organism-based; design: dose 300 mg/kg, route intraperitoneal; settings: in vivo
Mus musculus [21] = assay: Anticonvulsant activity ip dosed albino CF1 mouse assessed as protection against maximal electroshock-induced seizures after 0.25 hrs; type: functional
Rattus norvegicus [22] = assay: Anticonvulsant activity in albino Sprague-Dawley rat assessed as protection against maximal electroshock-induced seizures at 30 mg/kg, po after 0.5 hrs; type: functional, organism-based; design: dose 30 mg/kg
Mus musculus [23] = assay: Anticonvulsant activity against subcutaneous metrazole-induced seizures in ip dosed albino CF1 mouse assessed as minimum effective dose after 0.5 hrs; type: functional; settings: albino CF1, 0.5 h, read-out: MED
Mus musculus [24] = assay: Anticonvulsant activity in albino CF1 mouse assessed as protection against maximal electroshock-induced seizures at 300 mg/kg, ip after 0.5 hrs; type: functional, organism-based; design: dose 300 mg/kg
Mus musculus [25] = assay: Anticonvulsant activity ip dosed albino CF1 mouse assessed as protection against subcutaneous metrazole-induced seizures after 0.25 hrs; type: functional; settings: albino CF1, 0.25 h
Mus musculus [26] = assay: Anticonvulsant activity in albino CF1 mouse assessed as protection against subcutaneous metrazole-induced seizures at 100 mg/kg, ip after 4 hrs; type: functional, organism-based; design: dose 100 mg/kg
Mus musculus [27] = assay: Neurotoxicity in albino CF1 mouse assessed as minimal motor impairment at 30 mg/kg, ip after 0.5 hrs by rotarod test; type: toxicity, organism-based; design: dose 30 mg/kg, route intraperitoneal; settings: in vivo
Mus musculus [28] = assay: Neurotoxicity in ip dosed albino CF1 mouse assessed as minimum dose required to cause toxicity after 0.5 hrs by rotarod test; type: organism-based; settings: in vivo
Rattus norvegicus [29] = assay: Anticonvulsant activity in albino Sprague-Dawley rat assessed as protection against maximal electroshock-induced seizures at 30 mg/kg, po after 4 hrs; type: functional, organism-based; design: dose 30 mg/kg
Rattus norvegicus [30] = assay: Anticonvulsant activity in albino Sprague-Dawley rat assessed as protection against maximal electroshock-induced seizures at 30 mg/kg, po after 0.25 hrs; type: functional, organism-based; design: dose 30 mg/kg
Mus musculus [31] = assay: Anticonvulsant activity in albino CF1 mouse assessed as protection against subcutaneous metrazole-induced seizures at 300 mg/kg, ip after 4 hrs; type: functional, organism-based; design: dose 300 mg/kg
Mus musculus [32] = assay: Neurotoxicity in albino CF1 mouse assessed as minimal motor impairment at 100 mg/kg, ip after 4 hrs by rotarod test; type: toxicity, organism-based; design: dose 100 mg/kg, route intraperitoneal; settings: in vivo
Mus musculus [33] = assay: Neurotoxicity in ip dosed albino CF1 mouse assessed as minimum dose required to cause toxicity after 4 hrs by rotarod test; type: organism-based; settings: in vivo
Mus musculus [34] = assay: Anticonvulsant activity in albino CF1 mouse assessed as protection against maximal electroshock-induced seizures at 100 mg/kg, ip after 4 hrs; type: functional, organism-based; design: dose 100 mg/kg

With c1ccc(-c2c[nH]c(-c3ccccc3)n2)cc1 the Activity (Rattus norvegicus [1]) was “Non-toxic”, the Activity (Rattus norvegicus [2]) was “inactive” and the Activity (Mus musculus [3]) was “inactive”. The Activity (Mus musculus [4]) was “inactive”, the Activity (Mus musculus [5]) was “Active” and the minimal effective dose (Mus musculus [6]) was greater than 300 mg/kg. For the same compound, the Activity (Mus musculus [7]) was “inactive”, the TD50 (Mus musculus [8]) was 126.8 mg/kg and the Activity (Mus musculus [9]) was “Non-toxic”. For the same compound, the Activity (Mus musculus [10]) was “inactive”, the Activity (Mus musculus [11]) was “Non-toxic” and the Activity (Mus musculus [12]) was “Non-toxic”. For the same compound, the minimal effective dose (Mus musculus [13]) was 100 mg/kg, the Activity (Mus musculus [14]) was “inactive” and the Activity (Rattus norvegicus [15]) was “inactive”. The minimal effective dose (Mus musculus [16]) was greater than 30 mg/kg, the Activity (Mus musculus [17]) was “Active” and the Activity (Mus musculus [18]) was “Non-toxic”. The Activity (Mus musculus [19]) was “Active”, the Activity (Mus musculus [20]) was “Toxic” and the ED50 (Mus musculus [21]) was 61.7 mg/kg. For the same compound, the Activity (Rattus norvegicus [22]) was “inactive”, the minimal effective dose (Mus musculus [23]) was greater than 300 mg/kg and the Activity (Mus musculus [24]) was “Active”. For the same compound, the ED50 (Mus musculus [25]) was 161 mg/kg, the Activity (Mus musculus [26]) was “inactive” and the Activity (Mus musculus [27]) was “Non-toxic”. For the same compound, the MED (Mus musculus [28]) was 100 mg/kg, the Activity (Rattus norvegicus [29]) was “inactive” and the Activity (Rattus norvegicus [30]) was “inactive”. For the same compound, the Activity (Mus musculus [31]) was “inactive”, the Activity (Mus musculus [32]) was “Non-toxic” and the MED (Mus musculus [33]) was 100 mg/kg. The Activity (Mus musculus [34]) was “inactive”.
